Values joined by “and” are separate entries in the source; they are usually repeats but may differ in a detail not shown here. Identical values can stand only once. Like-named read-outs stand apart in the source and are kept apart here.
Key:
Experiment in all cases: Chemosensitivity, 96 h continuous exposure, MTT assay
Type in all cases: cell-based, human
[1] = test system: HCT116 p53+/+; settings: for Selectivity index (ARPE19): IC50 ARPE-19 / IC50 HCT116 p53+/+
From the text: (§1) All cell lines were purchased from and maintained as monolayers as described by the American Type Culture Collection with the exception of the p53^+/+ and p53^−/− isogenic clones of HCT116 human colorectal adenocarcinoma cells which were a kind gift from Professor Bert Vogelstein[54]. GBM1 cells were established from a primary GBM tumour by Heiko Wurdak and colleagues[32],[33]. Non-cancerous adult brain neural progenitor (NP1) cells were derived from a patient undergoing surgery to treat epilepsy[32],[33]. Cell culture and growth media for NP1 and GBM1 cells were as described[32],[33]. The response of cells following a continuous 96-h exposure to test compounds and platinates was determined using the MTT assay. Potency was recorded as the IC50 and the selectivity index (SI) was defined as the ratio of IC50 values for non-cancer to cancer cell lines with values >1 representing selectivity for cancer cells as opposed to non-cancer cells.
(§2) All cell lines used were maintained at low passage in antibiotic-free media. HT29, DLD-1, HCT116 p53^+/+ and HCT116 p53^−/− are all colorectal adenocarcinoma cell lines derived from different individuals and harbour different combinations of oncogenic lesions (except for the HCT116 isogenic cancer cell clones that are genetically identical except for p53 status). PSN-1, BxPC-3 and MiaPaCa2 are pancreatic carcinoma cell lines and A549 and H460 are lung carcinoma cell lines. HT29, DLD-1, PSN-1, BxPC-3, A549 and H460 cell lines were cultured in RPMI-1640 growth media (Sigma) containing 2 mM L-glutamine, 1 mM sodium pyruvate and 10% foetal bovine serum (FBS). HCT116 (p53^+/+ and p53^−/−) and MiaPaCa2 cell lines were cultured in Dulbecco’s Modified Eagle’s Medium (Sigma), 2 mM L-glutamine and 10% FBS. The ARPE-19 retinal epithelial non-cancer cell line was cultured in DMEM/F12 media (Gibco), 2 mM L-glutamine, 1 mM sodium pyruvate and 10% FBS. The MCF10A non-cancerous human breast epithelial cell line was cultured in Minimal Essential Media Eagle (Sigma), 2 mM L-glutamine, 1 mM sodium pyruvate, 10% FBS and 1x non-essential amino acids (NEAA). NP1 and GBM1 cells were cultured on plasticware coated with poly-L-ornithine (5 µg/ml) and laminin (2.4 µg/ml)[32],[33]. NP1 cells were grown in DMEM/F12 media (Gibco) supplemented with 5% FBS, 20 ng/ml hFGF, 20 ng/ml rhEGF, 0.5x B-27 supplement (Gibco), 0.5x N-2 supplement (Gibco) and 1x GLUTAMAX (Gibco). GBM1 cells were cultured in Neurobasal media (Gibco) supplemented with 40 ng/ml hFGF, 40 ng/ml rhEGF, 0.5x B-27 supplement (Gibco) and 0.5x N-2 supplement (Gibco).
(§3) [L2(Metal)3]^6+ and all the other self-assembling complexes were freshly formed by adding DMSO to individual components and mixing together by pipetting. These were then further diluted in cell culture media such that the final DMSO concentration that cells were exposed to was 0.2% (vehicle control). Cisplatin, oxaliplatin and carboplatin were dissolved in phosphate buffered saline. Cell lines were seeded into 96 well plates at 2 × 10^3 cells per well and incubated overnight at 37 °C. GBM1 cancer stem-like cells were seeded at 3 × 10^3 cells per well and NP1 neural progenitors were seeded at 1.5 × 10^3 cells per well. The following day, media was removed and replaced with fresh media containing test compounds at a range of concentrations. Cells were incubated with test compounds for a further 96 h after which the media was removed and replaced with fresh media (200 μl/well). MTT was added (20 μl at 5 mg/ml) and cells were incubated for a further 4 h. Media and MTT were removed and formazan crystals were dissolved in 150 μl of DMSO and the absorbance of the resulting solution determined at 540 nm. Dose response curves were constructed, and the concentration required to reduce cell growth by 50% (IC50) determined.

[2] = test system: HT-29
From the text: as §1, §2, §3

[3] = test system: ARPE-19 non-cancer cells
From the text: as §1, §2, §3

[4] = test system: MCF10A non-cancer cells
From the text: as §1, §2, §3

[5] = test system: HCT116 p53-/-; settings: for Selectivity index (ARPE19): IC50 ARPE-19 / IC50 HCT116 p53-/-
From the text: as §1, §2, §3

[6] = test system: H460
From the text: as §1, §2, §3

[7] = test system: A549
From the text: as §1, §2, §3

[8] = HCT116 p53+/+, read-out: Mean IC50 values
[9] = ARPE-19 non-cancer, read-out: Mean IC50 values
[10] = HCT116 p53-/-, read-out: Mean IC50 values

O=P([O-])([O-])Oc1ccccc1.[Cu+2].[Cu+2].[Cu+2].c1ccc(-c2csc(NCCN(CCNc3nc(-c4ccccn4)cs3)CCNc3nc(-c4ccccn4)cs3)n2)nc1.c1ccc(-c2csc(NCCN(CCNc3nc(-c4ccccn4)cs3)CCNc3nc(-c4ccccn4)cs3)n2)nc1 [[L2Cu3(O3POPh)]4+]
IC50 ([1]; HCT116 p53+/+, mean of replicates, read-out: Mean IC50): 167 nM
IC50 [1, 8]: 167 nM
IC50 ([1]; HCT116 p53+/+, single replicate, read-out: IC50 values for each replicate): 170 nM and 167 nM and 189 nM and 142 nM
Selectivity index (ARPE19) [1]: 690.06
Selectivity index (MCF10A) ([1]; IC50 MCF10A / IC50 HCT116 p53+/+): 308.25
Relative potency (+ anion to no anion), Ratio + anion:no anion ([1]; ratio of IC50, HCT116 p53+/+): 0.34
Selectivity indices relative to ARPE-19, Ratio + anion:no anion ([1]; ratio of SI (ARPE-19), HCT116 p53+/+): 6.503
Selectivity indices relative to MCF10A, Ratio + anion:no anion ([1]; ratio of SI (MCF 10A), HCT116 p53+/+): 3.168
IC50 ([2]; HT29, mean of replicates, read-out: Mean IC50): 695 nM
IC50 ([2]; HT29, read-out: Mean IC50 values): 695 nM
IC50 ([2]; HT-29, single replicate, read-out: IC50 values for each replicate): 687 nM and 844 nM and 642 nM and 195 nM and 1590 nM and 213 nM
Selectivity index (ARPE19) ([2]; IC50 ARPE-19 / IC50 HT29): 165.81
Selectivity index (MCF10A) ([2]; IC50 MCF10A / IC50 HT29): 74.07
Relative potency (+ anion to no anion), Ratio + anion:no anion ([2]; ratio of IC50, HT29): 3.25
Selectivity indices relative to ARPE-19, Ratio + anion:no anion ([2]; ratio of SI (ARPE-19), HT29): 0.674
Selectivity indices relative to MCF10A, Ratio + anion:no anion ([2]; ratio of SI (MCF 10A), HT29): 0.328
IC50 ([3]; ARPE-19, mean of replicates, read-out: Mean IC50): 115000 nM
IC50 ([3]; ARPE-19, single replicate, read-out: IC50 values for each replicate): 179000 nM and 157000 nM and 60700 nM and 64100 nM
IC50 [3, 9]: 115000 nM
Relative potency (+ anion to no anion), Ratio + anion:no anion ([3]; ratio of IC50, ARPE-19): 2.19
IC50 ([4]; MCF10A non-cancer, read-out: Mean IC50 values): 51500 nM
IC50 ([4]; MCF10A, mean of replicates, read-out: Mean IC50): 51500 nM
IC50 ([4]; MCF10A, single replicate, read-out: IC50 values for each replicate): 60200 nM and 49000 nM and 54900 nM and 41900 nM
Relative potency (+ anion to no anion), Ratio + anion:no anion ([4]; ratio of IC50, MCF10A): 1.07
IC50 ([5]; HCT116 p53-/-, mean of replicates, read-out: Mean IC50): 82 nM
IC50 [5, 10]: 82 nM
IC50 ([5]; HCT116 p53-/-, single replicate, read-out: IC50 values for each replicate): 80 nM and 86 nM
Selectivity index (ARPE19) [5]: 1405.37
Selectivity index (MCF10A) ([5]; IC50 MCF10A / IC50 HCT116 p53-/-): 627.77
Relative potency (+ anion to no anion), Ratio + anion:no anion ([5]; ratio of IC50, HCT116 p53-/-): 0.60
Selectivity indices relative to ARPE-19, Ratio + anion:no anion ([5]; ratio of SI (ARPE-19), HCT116 p53-/-): 3.658
Selectivity indices relative to MCF10A, Ratio + anion:no anion ([5]; ratio of SI (MCF 10A), HCT116 p53-/-): 1.782
IC50 ([6]; H460, mean of replicates, read-out: Mean IC50): 198 nM
IC50 ([6]; H460, read-out: Mean IC50 values): 198 nM
IC50 ([6]; H460, single replicate, read-out: IC50 values for each replicate): 122 nM and 234 nM and 163 nM and 228 nM and 245 nM
Selectivity index (ARPE19) ([6]; IC50 ARPE-19 / IC50 H460): 582.02
Selectivity index (MCF10A) ([6]; IC50 MCF10A / IC50 H460): 259.98
Relative potency (+ anion to no anion), Ratio + anion:no anion ([6]; ratio of IC50, H460): 0.72
Selectivity indices relative to ARPE-19, Ratio + anion:no anion ([6]; ratio of SI (ARPE-19), H460): 3.052
Selectivity indices relative to MCF10A, Ratio + anion:no anion ([6]; ratio of SI (MCF 10A), H460): 1.487
IC50 ([7]; A549, mean of replicates, read-out: Mean IC50): 1710 nM
IC50 ([7]; A549, read-out: Mean IC50 values): 1710 nM
IC50 ([7]; A549, single replicate, read-out: IC50 values for each replicate): 1800 nM and 1600 nM and 1720 nM
Selectivity index (ARPE19) ([7]; IC50 ARPE-19 / IC50 A549): 67.55
Selectivity index (MCF10A) ([7]; IC50 MCF10A / IC50 A549): 30.17
Relative potency (+ anion to no anion), Ratio + anion:no anion ([7]; ratio of IC50, A549): 7.32
Selectivity indices relative to ARPE-19, Ratio + anion:no anion ([7]; ratio of SI (ARPE-19), A549): 0.299
Selectivity indices relative to MCF10A, Ratio + anion:no anion ([7]; ratio of SI (MCF 10A), A549): 0.146

[Mn+2].[Mn+2].[Mn+2].c1ccc(-c2csc(NCCN(CCNc3nc(-c4ccccn4)cs3)CCNc3nc(-c4ccccn4)cs3)n2)nc1.c1ccc(-c2csc(NCCN(CCNc3nc(-c4ccccn4)cs3)CCNc3nc(-c4ccccn4)cs3)n2)nc1 [[L2Mn3]6+]
IC50 ([1]; HCT116 p53+/+, 96 h, MTT, individual run, read-out: IC50 values for each replicate): 1780 nM and 529 nM and 1400 nM and 1450 nM and 1410 nM
IC50 ([1]; HCT116 p53+/+, 96 h, MTT, mean of at least 3 independent experiments, read-out: Mean IC50): 1320 nM
IC50 [1, 8]: 1320 nM
Selectivity index (ARPE19) [1]: 2.17
preferential selectivity towards cancer cells ([1]; cancer cells vs non-cancer cells (Fig. 5f)): ~ 2 fold
SI (ARPE19) ([1]; mean IC50 ARPE-19 / mean IC50 HCT116 p53+/+): 2.173
IC50 ([3]; ARPE-19, 96 h, MTT, individual run, read-out: IC50 values for each replicate): 5140 nM and 2100 nM and 2120 nM and 2080 nM
IC50 ([3]; ARPE-19, 96 h, MTT, mean of at least 3 independent experiments, read-out: Mean IC50): 2860 nM
IC50 [3, 9]: 2860 nM
IC50 ([5]; HCT116 p53-/-, 96 h, MTT, individual run, read-out: IC50 values for each replicate): 1560 nM and 785 nM and 1350 nM and 1280 nM
IC50 ([5]; HCT116 p53-/-, 96 h, MTT, mean of at least 3 independent experiments, read-out: Mean IC50): 1250 nM
IC50 [5, 10]: 1250 nM
Selectivity index (ARPE19) [5]: 2.30
SI (ARPE19) ([5]; mean IC50 ARPE-19 / mean IC50 HCT116 p53-/-): 2.295
